In patent publication US11174251B2, “Compositions and methods for inhibition of the JAK pathway” (Rigel Pharmaceuticals, Inc., priority 2010, dated 2021):
Where a name gives a salt, the structure may show the parent alone.

Biological target: T1, JAK3 (Homo sapiens, UniProt P52333)
T1 construct: The Ramos B-cell line was acquired from ATCC (ATCC Catalog No. CRL-1596); host or cells: Ramos B-cell line (human)
T1 sequence (P52333 1-1124): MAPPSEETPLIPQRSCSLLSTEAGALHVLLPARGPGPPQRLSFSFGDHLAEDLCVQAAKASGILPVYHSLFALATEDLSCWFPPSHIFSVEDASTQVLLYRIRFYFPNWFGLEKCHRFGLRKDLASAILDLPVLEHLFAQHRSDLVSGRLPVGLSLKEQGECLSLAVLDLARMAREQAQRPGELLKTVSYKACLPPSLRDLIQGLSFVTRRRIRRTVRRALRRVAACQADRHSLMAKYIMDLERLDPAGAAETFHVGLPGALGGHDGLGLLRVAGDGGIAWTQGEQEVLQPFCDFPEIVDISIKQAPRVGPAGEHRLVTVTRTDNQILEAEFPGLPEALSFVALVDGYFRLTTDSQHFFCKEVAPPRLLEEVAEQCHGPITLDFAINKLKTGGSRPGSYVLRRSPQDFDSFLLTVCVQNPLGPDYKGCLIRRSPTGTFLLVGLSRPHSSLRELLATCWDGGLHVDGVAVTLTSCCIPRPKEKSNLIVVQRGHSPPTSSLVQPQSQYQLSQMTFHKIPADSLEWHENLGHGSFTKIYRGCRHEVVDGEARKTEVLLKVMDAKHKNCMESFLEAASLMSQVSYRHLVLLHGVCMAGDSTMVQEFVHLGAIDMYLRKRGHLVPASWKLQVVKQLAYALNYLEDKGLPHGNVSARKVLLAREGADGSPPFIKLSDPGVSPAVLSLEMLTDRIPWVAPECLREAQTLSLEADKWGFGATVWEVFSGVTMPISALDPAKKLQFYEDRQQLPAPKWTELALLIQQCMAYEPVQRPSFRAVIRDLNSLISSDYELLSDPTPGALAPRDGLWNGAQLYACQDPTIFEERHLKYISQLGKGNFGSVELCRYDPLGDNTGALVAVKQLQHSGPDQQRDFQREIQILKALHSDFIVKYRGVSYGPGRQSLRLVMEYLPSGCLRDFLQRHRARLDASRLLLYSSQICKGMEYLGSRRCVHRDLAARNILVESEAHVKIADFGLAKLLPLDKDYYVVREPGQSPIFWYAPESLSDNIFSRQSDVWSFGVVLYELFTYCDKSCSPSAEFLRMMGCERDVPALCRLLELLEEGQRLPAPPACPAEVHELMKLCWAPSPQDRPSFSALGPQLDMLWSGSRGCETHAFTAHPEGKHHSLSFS
Test: Assay for CD23 expression on Ramos B-cells stimulated by IL-4 (Table IV: ability to inhibit JAK3 activity)
Type: cell-based
Settings: tested under conditions described in Example 3 (so in the source)
Method in brief: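 Human Ramos B cells in RPMI with 5% serum, pre-incubated 1 h at 37 °C with compound or DMSO, then stimulated with IL-4 (final 50 units/mL) for 20–24 h. Surface CD23 upregulation measured by FACS staining as readout of JAK1/JAK3–Stat-6 signalling.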

Row | IC50 [nM] | Structure (SMILES)
1 | < 500 | O=c1[nH]c2cc(Nc3nc(Nc4cccc(C(O)C(F)(F)F)c4)ncc3F)ccc2o1 (stereo not shown) [Compound I-210, 5-fluoro-N2-[3-(1-hydroxy-2,2,2-trifluoroethyl)]phenyl-N4-(2-oxo-2,3-dihydro-1,3-benzoxazol-5-yl)-2,4-pyrimidinediamine]
2 | < 500 | COc1cc(Nc2ncc(F)c(Nc3ccc4oc(=O)[nH]c4c3)n2)cc(C(F)(F)F)c1 [Compound I-211, 5-fluoro-N2-(3-methoxy-5-trifluoromethyl)phenyl-N4-(2-oxo-2,3-dihydro-1,3-benzoxazol-5-yl)-2,4-pyrimidinediamine]
3 | < 500 | COc1ccc(Nc2ncc(F)c(Nc3ccc4oc(=O)[nH]c4c3)n2)cc1C(F)(F)F [Compound I-212, 5-fluoro-N2-(4-methoxy-3-trifluoromethyl)phenyl-N4-(2-oxo-2,3-dihydro-1,3-benzoxazol-5-yl)-2,4-pyrimidinediamine]
4 | < 500 | COc1ccc(Nc2ncc(F)c(Nc3ccc4oc(=O)[nH]c4c3)n2)cc1OCC(=O)NC1CC1 [Compound I-213, N2-[3-(cyclopropylaminocarbonylmethoxy)-4-methoxy]phenyl-5-fluoro-N4-(2-oxo-2,3-dihydro-1,3-benzoxazol-5-yl)-2,4-pyrimidinediamine]
5 | > 10000 | Cc1cc(Nc2ncc(F)c(Nc3ccc4oc(=O)[nH]c4c3)n2)cc(C)c1C [Compound I-214, 5-fluoro-N2-(3,4,5-trimethyl)phenyl-N4-(2-oxo-2,3-dihydro-1,3-benzoxazol-5-yl)-2,4-pyrimidinediamine]
6 | < 500 | Cc1cc(Nc2ncc(F)c(Nc3ccc4oc(=O)[nH]c4c3)n2)cc(C)c1F [Compound I-215, N2-(3,5-dimethyl-4-fluoro)phenyl-5-fluoro-N4-(2-oxo-2,3-dihydro-1,3-benzoxazol-5-yl)-2,4-pyrimidinediamine]
7 | < 500 | O=c1[nH]c2cc(Nc3nc(Nc4ccc5c(c4)CCC(N4CCCC4)CC5)ncc3F)ccc2o1 (stereo not shown) [II-2, 5-(5-fluoro-2-(7-(pyrrolidin-1-yl)-6,7,8,9-tetrahydro-5H-benzo[7]annulen-2-ylamino)pyrimidin-4-ylamino)benzo[d]oxazol-2(3H)-one diformate salt]
8 | < 500 | CN1C/C=C\Cc2ccc(Nc3ncc(F)c(Nc4ccc5oc(=O)[nH]c5c4)n3)cc2C1=O [II-4, (Z)-5-(5-fluoro-2-(2-methyl-1-oxo-1,2,3,6-tetrahydrobenzo[c]azocin-9-ylamino)pyrimidin-4-ylamino)benzo[d]oxazol-2(3H)-one formate salt]
9 | > 10000 | COC(=O)c1cnc(Nc2ccc3ccccc3c2)nc1Nc1ccc2oc(=O)[nH]c2c1 [II-7, 2-(Naphthalen-2-ylamino)-4-(2-oxo-2,3-dihydro-benzooxazol-5-ylamino)-pyrimidine-5-carboxylic acid methyl ester trifluoroacetate salt]
10 | < 500 | Cc1cnc(Nc2ccc3c(c2)C(=O)OC3)nc1Nc1ccc2oc(=O)[nH]c2c1 [II-8, 5-methyl-N4-(2-oxo-2,3-dihydro-1,3-benzoxazol-5-yl)-N2-(1-oxo-1,3-dihydro-isobenzofuran-6-yl)-2,4-pyrimidinediamine]
11 | < 500 | Cc1cnc(Nc2ccc3c(c2)COC3)nc1Nc1ccc2oc(=O)[nH]c2c1 [II-9, N2-(1,3-dihydro-isobenzofuran-5-yl)-5-methyl-N4-(2-oxo-2,3-dihydro-1,3-benzoxazol-5-yl)-2,4-pyrimidinediamine]
12 | < 500 | Cc1cnc(Nc2ccc3c(c2)COC3=O)nc1Nc1ccc2oc(=O)[nH]c2c1 [II-10, 5-methyl-N4-(2-oxo-2,3-dihydro-1,3-benzoxazol-5-yl)-N2-(1-oxo-1,3-dihydro-isobenzofuran-5-yl)-2,4-pyrimidinediamine]
13 | < 500 | Cc1cnc(Nc2ccc3c(c2)C(=O)NC3)nc1Nc1ccc2oc(=O)[nH]c2c1 [II-11, 5-methyl-N4-(2-oxo-2,3-dihydro-1,3-benzoxazol-5-yl)-N2-(1-oxo-1,3-dihydro-2H-isoindol-6-yl)-2,4-pyrimidinediamine]
14 | < 500 | Cc1cnc(Nc2ccc(C)c3c2COC3=O)nc1Nc1ccc2oc(=O)[nH]c2c1 [II-12, 5-methyl-N4-(2-oxo-2,3-dihydro-1,3-benzoxazol-5-yl)-N2-(1-oxo-1,3-dihydro-7-methylisobenzofuran-4-yl)-2,4-pyrimidinediamine]
15 | < 500 | Cc1cnc(Nc2cc(C)c3c(c2)C(=O)OC3)nc1Nc1ccc2oc(=O)[nH]c2c1 [II-13, 5-methyl-N4-(2-oxo-2,3-dihydro-1,3-benzoxazol-5-yl)-N2-(1-oxo-1,3-dihydro-4-methylisobenzofuran-6-yl)-2,4-pyrimidinediamine]
16 | > 10000 | Cc1cnc(Nc2ncc(C)c(Nc3ccc4oc(=O)[nH]c4c3)n2)cc1C [II-14, N2-(4,5-dimethylpyridin-2-yl)-5-methyl-N4-(2-oxo-2,3-dihydro-1,3-benzoxazol-5-yl)-2,4-pyrimidinediamine]
17 | 500 to 5000 | Cc1cc(C)nc(Nc2ncc(C)c(Nc3ccc4oc(=O)[nH]c4c3)n2)c1 [II-15, N2-(4,6-dimethylpyridin-2-yl)-5-methyl-N4-(2-oxo-2,3-dihydro-1,3-benzoxazol-5-yl)-2,4-pyrimidinediamine]
18 | > 10000 | Cc1cnc(Nc2ccc(C#N)c(C)n2)nc1Nc1ccc2oc(=O)[nH]c2c1 [II-16, N2-(5-cyano-6-methylpyridin-2-yl)-5-methyl-N4-(2-oxo-2,3-dihydro-1,3-benzoxazol-5-yl)-2,4-pyrimidinediamine]
19 | < 500 | COc1cc(Nc2ncc(C)c(Nc3ccc4oc(=O)[nH]c4c3)n2)ccn1 [II-17, N2-(2-methoxypyridin-4-yl)-5-methyl-N4-(2-oxo-2,3-dihydro-1,3-benzoxazol-5-yl)-2,4-pyrimidinediamine]
20 | < 500 | Cc1cc(Nc2ncc(C)c(Nc3ccc4oc(=O)[nH]c4c3)n2)cc(C)n1 [II-19, N2-(2,6-dimethylpyridin-4-yl)-5-methyl-N4-(2-oxo-2,3-dihydro-1,3-benzoxazol-5-yl)-2,4-pyrimidinediamine]
21 | < 500 | COc1cccc(Nc2ncc(C)c(Nc3ccc4oc(=O)[nH]c4c3)n2)n1 [II-20, N2-(6-methoxypyridin-2-yl)-5-methyl-N4-(2-oxo-2,3-dihydro-1,3-benzoxazol-5-yl)-2,4-pyrimidinediamine]
22 | 500 to 5000 | Cc1ccc(Nc2ncc(C)c(Nc3ccc4oc(=O)[nH]c4c3)n2)nc1C [II-21, N2-(5,6-dimethylpyridin-2-yl)-5-methyl-N4-(2-oxo-2,3-dihydro-1,3-benzoxazol-5-yl)-2,4-pyrimidinediamine]
23 | 500 to 5000 | Cc1cc(Nc2ncc(C)c(Nc3ccc4oc(=O)[nH]c4c3)n2)ncc1C#N [II-22, N2-(5-cyano-4-methylpyridin-2-yl)-5-methyl-N4-(2-oxo-2,3-dihydro-1,3-benzoxazol-5-yl)-2,4-pyrimidinediamine]

Row | Structure (SMILES) | IC50 [nM]
24 | O=C1CCCCc2cc(Nc3ncc(F)c(Nc4ccc5oc(=O)[nH]c5c4)n3)ccc21 [II-5, 5-(5-fluoro-2-(5-oxo-6,7,8,9-tetrahydro-5H-benzo[7]annulen-2-ylamino)pyrimidin-4-ylamino)benzo[d]oxazol-2(3H)-one formate salt] | < 500
25 | O=c1[nH]c2cc(Nc3nc(Nc4ccc5ccccc5c4)ncc3[N+](=O)[O-])ccc2o1 [II-6, 5-(2-(naphthalen-2-ylamino)-5-nitropyrimidin-4-ylamino)benzo[d]oxazol-2(3H)-one trifluoroacetate salt] | > 10000
